In article PMC11206396 (Chemical Science, 2024):
Like-named read-outs stand apart in the source and are kept apart here. Positions of bridges follow the written chain, without caps; N, C: chain ends. Residues, ends and D or L forms follow the SMILES beside them. Chains are numbered I, II in the order given. *: point of attachment. X5 = Cc1cc(NC(=O)CCC(=O)O)ccc1-c1cc(CN2CCN(CC(=O)O)CCN(CC(=O)O)CCN(CC(=O)O)CC2)nc(C(=O)*)c1; X2 = CC(=O)Nc1ccc(-c2cc(CN3CCN(CC(=O)O)CCN(CC(=O)O)CCN(CC(=O)O)CC3)nc(C(=O)*)c2)c(C)c1; X4 = Cc1cc(NC(=O)CCN)ccc1-c1cc(CN2CCN(CC(=O)O)CCN(CC(=O)O)CCN(CC(=O)O)CC2)nc(C(=O)*)c1; X1 = CC(=O)Nc1ccc(-c2cc(CN3CCN(CC(=O)O)CCN(CC(=O)O)CCN(CC(=O)O)CC3)nc(C(=O)*)c2)cc1; X3 = COc1ccc(-c2cc(CN3CCN(CC(=O)O)CCN(CC(=O)O)CCN(CC(=O)O)CC3)nc(C(=O)*)c2)c(C)c1

Legend:
HeLa cells [1] = test: Two-photon microscopy (2PM) imaging of live cells: internalization and cytosolic delivery; assay type: cell-based; settings: for cytosolic delivery (diffuse Ln3+ emission): 10 μM; for cytosolic delivery (diffuse Ln3+ emission) / co-internalization of a Tb3+/Eu3+ probe mixture: 2P excitation 720 nm; for co-internalization of a Tb3+/Eu3+ probe mixture: 1 h, Tb probe 10 μM + dTAT[Eu·L-Ar-NHAc] 5 μM
HEK293T cells = test: as above; assay type: cell-based; settings: 1 h, 10 μM
Procedure: (§1) Fig. 7 2PM imaging (λex = 720 nm) of living HEK293T (A) and MRC5 (B) cells incubated 1 h with dTAT[Eu·L-Ar-NHAc] (10 μM) in RPMI medium. Top: DIC, emission recorded using a 465–680 nm bp filter and merge; Bottom: linear unmixing of autofluorescence (AF) and Eu^3+ emission and merge. Scale bars correspond to 10 μm. […]
(§2) dependence for each sample (Fig. S9), the incident power was adjusted to 35 mW to characterize the two-photon absorption spectra. Calibration of the 2P absorption spectra was performed at each excitation wavelength by comparison with that of fluorescein (10 µM, pH 11) as reference compound.[12]
(§3) General: HeLa, MRC5 and HEK293 cell lines were purchased from the ATCC and agreed by French ethic boards […]
(§4) Cell culture: HeLa cells were grown in RPMI medium supplemented with 10% fetal bovine serum (v/v) at 37°C in a 5% CO2 humidified atmosphere.
(§5) Peptides delivery in live cells: HeLa cells were seeded at 3´10^4 cells/well onto an 8-chamber Labtek-I coverglass system.
(§6) After 24 h, cells were washed three times with PBS. Cells were incubated with dTAT [Ln·L] (10 µM) in RPMI medium (without phenol red and without serum) or PBS at 37°C for 1 h. […]
(§7) Temporal Sampling Lifetime Imaging Microscopy (TSLIM) was used to record luminescence lifetime decay in cells (single pulsed excitation with the 7.56 μs temporal resolution).[13] […]

MRC5 cells = test: as above; assay type: cell-based; settings: 1 h, 10 μM
Procedure: as §1, §2, §3, §4, §5, §6, §7

HeLa cells [2] = test: MTT proliferation assay (cytotoxicity)
[3] = live HeLa cells, 1 h incubation
[4] = read-out: IC50 (concentration causing a 50% reduction in proliferation), MTT proliferation assay, 2 h incubation

Row | SMILES | cytosolic delivery (diffuse Ln3+ emission) (HeLa cells [1]; [3]) | co-internalization of a Tb3+/Eu3+ probe mixture (HeLa cells [1]; HeLa cells) | IC50 (HeLa cells [2]; [4]) [µM] | other results
1 | Cc1cc(NC(=O)CCC(=O)O)ccc1-c1cc(CN2CCN(CC(=O)O)CCN(CC(=O)O)CCN(CC(=O)O)CC2)nc(C(=O)NCCCC[C@H](NC(=O)[C@@H](N)CSSC[C@H](N)C(=O)N[C@@H](CCCCNC(=O)c2cc(-c3ccc(NC(=O)CCC(=O)O)cc3C)cc(CN3CCN(CC(=O)O)CCN(CC(=O)O)CCN(CC(=O)O)CC3)n2)C(=O)N[C@@H](CCCNC(=N)N)C(=O)N[C@@H](CCCCN)C(=O)N[C@@H](CCCCN)C(=O)N[C@@H](CCCNC(=N)N)C(=O)N[C@@H](CCCNC(=N)N)C(=O)N[C@@H](CCC(N)=O)C(=O)N[C@@H](CCCNC(=N)N)C(=O)N[C@@H](CCCNC(=N)N)C(=O)N[C@@H](CCCNC(=N)N)C(=O)NCC(N)=O)C(=O)N[C@@H](CCCNC(=N)N)C(=O)N[C@@H](CCCCN)C(=O)N[C@@H](CCCCN)C(=O)N[C@@H](CCCNC(=N)N)C(=O)N[C@@H](CCCNC(=N)N)C(=O)N[C@@H](CCC(N)=O)C(=O)N[C@@H](CCCNC(=N)N)C(=O)N[C@@H](CCCNC(=N)N)C(=O)N[C@@H](CCCNC(=N)N)C(=O)NCC(N)=O)c1 [dTAT[Tb·L-^MeAr-NHSuc(−)]] (I: H-CK(X5)RKKRRQRRRG-NH2 / II: H-CK(X5)RKKRRQRRRG-NH2; disulfide I:1-II:1) | efficiently delivered to the cytosol |  |  | 
2 | CC(=O)Nc1ccc(-c2cc(CN3CCN(CC(=O)O)CCN(CC(=O)O)CCN(CC(=O)O)CC3)nc(C(=O)NCCCC[C@H](NC(=O)[C@@H](N)CSSC[C@H](N)C(=O)N[C@@H](CCCCNC(=O)c3cc(-c4ccc(NC(C)=O)cc4)cc(CN4CCN(CC(=O)O)CCN(CC(=O)O)CCN(CC(=O)O)CC4)n3)C(=O)N[C@@H](CCCNC(=N)N)C(=O)N[C@@H](CCCCN)C(=O)N[C@@H](CCCCN)C(=O)N[C@@H](CCCNC(=N)N)C(=O)N[C@@H](CCCNC(=N)N)C(=O)N[C@@H](CCC(N)=O)C(=O)N[C@@H](CCCNC(=N)N)C(=O)N[C@@H](CCCNC(=N)N)C(=O)N[C@@H](CCCNC(=N)N)C(=O)NCC(N)=O)C(=O)N[C@@H](CCCNC(=N)N)C(=O)N[C@@H](CCCCN)C(=O)N[C@@H](CCCCN)C(=O)N[C@@H](CCCNC(=N)N)C(=O)N[C@@H](CCCNC(=N)N)C(=O)N[C@@H](CCC(N)=O)C(=O)N[C@@H](CCCNC(=N)N)C(=O)N[C@@H](CCCNC(=N)N)C(=O)N[C@@H](CCCNC(=N)N)C(=O)NCC(N)=O)c2)cc1 [dTAT[Eu·L-Ar-NHAc]] (I: H-CK(X1)RKKRRQRRRG-NH2 / II: H-CK(X1)RKKRRQRRRG-NH2; disulfide I:1-II:1; N-terminus assumed) | cytosolic delivery | co-internalized |  | number of cells showing cytosolic staining (diffuse Eu3+ emission) (HeLa cells [1]; HeLa cells, 5 μM, 1 h incubation, over 6 hours after washing, determined visually): 34–38%; cell staining pattern at low concentration (HeLa cells [1]; live HeLa cells, 2.5 μM, 1 h incubation): only show punctate Eu^3+ around the nucleus; cytosolic delivery (diffuse Eu3+ localization) (HEK293T cells): successful cytosolic delivery; cytosolic delivery (diffuse Eu3+ localization) (MRC5 cells): successful cytosolic delivery; toxicity at the concentration used for 2PM (HeLa cells [2]; MTT assay, 10 μM): no toxicity
3 | CC(=O)Nc1ccc(-c2cc(CN3CCN(CC(=O)O)CCN(CC(=O)O)CCN(CC(=O)O)CC3)nc(C(=O)NCCCC[C@H](NC(=O)[C@@H](N)CSSC[C@H](N)C(=O)N[C@@H](CCCCNC(=O)c3cc(-c4ccc(NC(C)=O)cc4C)cc(CN4CCN(CC(=O)O)CCN(CC(=O)O)CCN(CC(=O)O)CC4)n3)C(=O)N[C@@H](CCCNC(=N)N)C(=O)N[C@@H](CCCCN)C(=O)N[C@@H](CCCCN)C(=O)N[C@@H](CCCNC(=N)N)C(=O)N[C@@H](CCCNC(=N)N)C(=O)N[C@@H](CCC(N)=O)C(=O)N[C@@H](CCCNC(=N)N)C(=O)N[C@@H](CCCNC(=N)N)C(=O)N[C@@H](CCCNC(=N)N)C(=O)NCC(N)=O)C(=O)N[C@@H](CCCNC(=N)N)C(=O)N[C@@H](CCCCN)C(=O)N[C@@H](CCCCN)C(=O)N[C@@H](CCCNC(=N)N)C(=O)N[C@@H](CCCNC(=N)N)C(=O)N[C@@H](CCC(N)=O)C(=O)N[C@@H](CCCNC(=N)N)C(=O)N[C@@H](CCCNC(=N)N)C(=O)N[C@@H](CCCNC(=N)N)C(=O)NCC(N)=O)c2)c(C)c1 [dTAT[Tb·L-^MeAr-NHAc]] (I: H-CK(X2)RKKRRQRRRG-NH2 / II: H-CK(X2)RKKRRQRRRG-NH2; disulfide I:1-II:1) | cytosolic delivery |  | 7.6 ± 1.6 | IC50 (HeLa cells [2]; read-out: IC50 (concentration causing a 50% reduction in proliferation), MTT proliferation assay, 2 h incubation, listed as dTAT[Tb·L-^MeAr-HNAc]): < 10 µM
4 | Cc1cc(NC(=O)CCN)ccc1-c1cc(CN2CCN(CC(=O)O)CCN(CC(=O)O)CCN(CC(=O)O)CC2)nc(C(=O)NCCCC[C@H](NC(=O)[C@@H](N)CSSC[C@H](N)C(=O)N[C@@H](CCCCNC(=O)c2cc(-c3ccc(NC(=O)CCN)cc3C)cc(CN3CCN(CC(=O)O)CCN(CC(=O)O)CCN(CC(=O)O)CC3)n2)C(=O)N[C@@H](CCCNC(=N)N)C(=O)N[C@@H](CCCCN)C(=O)N[C@@H](CCCCN)C(=O)N[C@@H](CCCNC(=N)N)C(=O)N[C@@H](CCCNC(=N)N)C(=O)N[C@@H](CCC(N)=O)C(=O)N[C@@H](CCCNC(=N)N)C(=O)N[C@@H](CCCNC(=N)N)C(=O)N[C@@H](CCCNC(=N)N)C(=O)NCC(N)=O)C(=O)N[C@@H](CCCNC(=N)N)C(=O)N[C@@H](CCCCN)C(=O)N[C@@H](CCCCN)C(=O)N[C@@H](CCCNC(=N)N)C(=O)N[C@@H](CCCNC(=N)N)C(=O)N[C@@H](CCC(N)=O)C(=O)N[C@@H](CCCNC(=N)N)C(=O)N[C@@H](CCCNC(=N)N)C(=O)N[C@@H](CCCNC(=N)N)C(=O)NCC(N)=O)c1 [dTAT[Tb·L-^MeAr-NHβAla(+)]] (I: H-CK(X4)RKKRRQRRRG-NH2 / II: H-CK(X4)RKKRRQRRRG-NH2; disulfide I:1-II:1) | efficiently delivered to the cytosol | co-internalized |  | 
5 | COc1ccc(-c2cc(CN3CCN(CC(=O)O)CCN(CC(=O)O)CCN(CC(=O)O)CC3)nc(C(=O)NCCCC[C@H](NC(=O)[C@@H](N)CSSC[C@H](N)C(=O)N[C@@H](CCCCNC(=O)c3cc(-c4ccc(OC)cc4C)cc(CN4CCN(CC(=O)O)CCN(CC(=O)O)CCN(CC(=O)O)CC4)n3)C(=O)N[C@@H](CCCNC(=N)N)C(=O)N[C@@H](CCCCN)C(=O)N[C@@H](CCCCN)C(=O)N[C@@H](CCCNC(=N)N)C(=O)N[C@@H](CCCNC(=N)N)C(=O)N[C@@H](CCC(N)=O)C(=O)N[C@@H](CCCNC(=N)N)C(=O)N[C@@H](CCCNC(=N)N)C(=O)N[C@@H](CCCNC(=N)N)C(=O)NCC(N)=O)C(=O)N[C@@H](CCCNC(=N)N)C(=O)N[C@@H](CCCCN)C(=O)N[C@@H](CCCCN)C(=O)N[C@@H](CCCNC(=N)N)C(=O)N[C@@H](CCCNC(=N)N)C(=O)N[C@@H](CCC(N)=O)C(=O)N[C@@H](CCCNC(=N)N)C(=O)N[C@@H](CCCNC(=N)N)C(=O)N[C@@H](CCCNC(=N)N)C(=O)NCC(N)=O)c2)c(C)c1 [dTAT[Tb·L-^MeAr-OMe]] (I: H-CK(X3)RKKRRQRRRG-NH2 / II: H-CK(X3)RKKRRQRRRG-NH2; disulfide I:1-II:1) | successful cytosolic delivery |  | 18 ± 3 | 
